The results in this text go back to article PMC6353898, “A Rational Approach for Creating Peptides Mimicking Antibody Binding” (Scientific Reports, 2019).

Like-named read-outs stand apart in the source and are kept apart here. Square brackets hold non-standard residues; d marks the D form. Ends that are not written are not given here. Peptide text beside a SMILES is read from it. * marks the point of attachment. Dolaproine = CO[C@@H]([C@@H]1CCCN1)[C@@H](C)C(=O)O; Dil = CC[C@H](C)[C@H](NC)[C@@H](CC(=O)O)OC; X1 = C[C@@H](N*)[C@@H](O)c1ccccc1; NMeV = CN[C@H](C(=O)O)C(C)C

One assay deals with HEK 293 cells. Briefly: In vitro cytotoxicity (SRB), HEK 293. Type of assay: cell-based, human. The protocol:
(§1) Cells were cultured to 80% confluency in T75 culture flasks using DMEM as growth medium, respectively. The cells were seeded onto 96 well plates and grown for 24 h to reach 50% confluency.
(§2) At the end of the incubation period, the cells were fixed using 10% trichloroacetic acid, followed by washing with distilled water and drying. The cellular proteins were stained using 50 μL of 0.4% Sulforhodamine B (SRB) in 1% acetic acid. Unbound SRB was washed with 1% acetic acid and the plates were dried overnight. The cell bound SRB was then solubilized using 200 μL of 10 mM unbuffered tris base solution. SRB absorbance was measured at 560 nm wavelength using a plate reader. The percent viabilities of cells were plotted as a function of log concentration and data was analyzed in GraphPad Prism Version 5.0 software (GraphPad Software Inc, CA, USA) using nonlinear-regression curve fit (variable slope four parameter equation).

The next assay relates to A431 cells. The assay is described as follows: In vitro cytotoxicity (SRB), A431. Type of assay: cell-based. The protocol:
as §1, §2

A further assay has as its system MDA MB 468 cells. The assay is described as follows: In vitro cytotoxicity (SRB), MDA MB 468. Type of assay: cell-based, human. The method, then: as §1, §2
Assay [1] addresses EGFR recombinant human protein (Homo sapiens, UniProt P00533). The assay is described as follows: Surface plasmon resonance, EGFR as immobilized surface. Type of assay: binding. Conditions: SPR, 25 °C, PBS with 0.01% Tween 20 pH 7.4. The method, then:
All experiments were carried out at 25 °C.

Assay [2] has as its target bovine serum albumin (BSA) (Bos taurus, UniProt P02769). Conditions: pH 7.4.
Method: Surface plasmon resonance (SPR) studies were conducted using the Dual Channel SPR Spectrometer SPR7000DC (Reichert Technologies, New York, USA) to determine the binding affinity of peptides to EGFR protein. All experiments were carried out at 25 °C. Phosphate buffer saline (PBS) with 0.01% Tween 20 (pH7.4) was filtered and thoroughly degassed before use. EGFR (20 µg/mL) recombinant human protein and bovine serum albumin (BSA 20 µg/mL) were covalently attached to the left channel of 500,000 Da carboxymethylated dextran sensor chips using 1-ethyl-3-(3-dimethylaminopropyl)-carbodiimide (EDC) and N-hydroxysuccinimide (NHS) chemistry. The chips were then blocked by passing ethanolamine for 8 minutes at a rate of 10 µL/min.
All peptides were injected as soluble analytes in PBS with 0.01% Tween 20 at different concentrations with an injection speed at 15 µL/min. […] The bound surface was regenerated by sequential injections of 10 mM glycine in PBS (pH 2.5).
The sensorgrams from SPR were globally treated using Scrubber 2 software (BioLogic Software Pty Ltd, Australia), and kinetic constants kon and koff were determined by global fitting analyses of the titration curves using the 1:1 Lagmurian interaction model considering the mass transport. The equilibrium dissociation constant (KD) was calculated from the koff/kon ratio.

Chain of EGFR recombinant human protein (P00533 25-645 limits assumed): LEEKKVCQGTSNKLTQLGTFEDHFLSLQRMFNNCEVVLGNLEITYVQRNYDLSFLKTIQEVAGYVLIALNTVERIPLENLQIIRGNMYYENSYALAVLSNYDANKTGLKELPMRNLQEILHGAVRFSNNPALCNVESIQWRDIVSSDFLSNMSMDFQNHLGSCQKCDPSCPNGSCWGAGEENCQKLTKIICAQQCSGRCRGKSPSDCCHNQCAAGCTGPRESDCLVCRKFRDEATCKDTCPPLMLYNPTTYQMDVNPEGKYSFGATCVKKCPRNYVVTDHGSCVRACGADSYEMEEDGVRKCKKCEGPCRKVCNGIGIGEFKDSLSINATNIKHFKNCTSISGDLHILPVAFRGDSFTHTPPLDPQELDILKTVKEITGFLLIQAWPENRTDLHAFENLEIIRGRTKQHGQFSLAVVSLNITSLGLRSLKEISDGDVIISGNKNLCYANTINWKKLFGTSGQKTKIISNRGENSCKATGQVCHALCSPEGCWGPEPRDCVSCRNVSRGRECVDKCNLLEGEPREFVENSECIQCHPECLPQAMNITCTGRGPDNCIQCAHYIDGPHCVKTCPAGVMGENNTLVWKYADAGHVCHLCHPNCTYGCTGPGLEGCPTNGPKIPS
Chain of bovine serum albumin (BSA) (P02769 25-607): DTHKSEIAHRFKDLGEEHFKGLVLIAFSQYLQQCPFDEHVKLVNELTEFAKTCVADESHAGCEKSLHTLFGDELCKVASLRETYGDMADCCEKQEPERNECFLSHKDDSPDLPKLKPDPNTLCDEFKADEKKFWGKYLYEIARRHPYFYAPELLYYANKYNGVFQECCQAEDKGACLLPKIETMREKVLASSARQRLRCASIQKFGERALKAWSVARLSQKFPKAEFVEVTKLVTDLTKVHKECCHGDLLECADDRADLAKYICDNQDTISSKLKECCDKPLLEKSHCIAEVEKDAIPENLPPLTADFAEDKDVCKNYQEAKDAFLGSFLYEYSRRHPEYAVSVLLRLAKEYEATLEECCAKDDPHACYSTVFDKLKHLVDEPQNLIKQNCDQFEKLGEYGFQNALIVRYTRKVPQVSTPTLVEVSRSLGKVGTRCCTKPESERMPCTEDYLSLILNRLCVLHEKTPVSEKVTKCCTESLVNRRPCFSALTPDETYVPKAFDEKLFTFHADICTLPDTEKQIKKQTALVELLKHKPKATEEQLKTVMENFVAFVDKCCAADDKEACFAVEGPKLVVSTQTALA

On to `CC[C@H](C)[C@@H]([C@@H](CC(=O)N1CCC[C@H]1[C@H](OC)[C@@H](C)C(=O)N[C@H](C)[C@@H](O)c1ccccc1)OC)N(C)C(=O)[C@@H](NC(=O)[C@@H](NC)C(C)C)C(C)C` [MMAE, Monomethyl Auristatin E, reference compound] (H-[NMeV]V[Dil][Dolaproine]-X1), for which the half-maximal inhibitory concentration (IC50) with HEK 293 cells (SRB, 72 hours at 37 °C, 0.00001 to 10000 nM, read-out: IC50 (HEK 293)) was determined as 0.0626 nM; in the assay on A431 cells (SRB, 72 hours at 37 °C, 0.00001 to 10000 nM, read-out: IC50 (A431)) it was 0.0246 nM; in the assay with MDA MB 468 cells (SRB, 72 hours at 37 °C, 0.00001 to 10000 nM, read-out: IC50 (MDA MB 468)) it was 0.0117 nM.
Regarding SGEWAYDGYEPNFG [Pep25], the “KD EGFR / binding to EGFR, no value” in assay [1] is given as “did not bind”.
WSGENGPGFYDYEA [Pep11]: the figures for the 50% inhibitory concentration (IC50) in the assay with HEK 293 cells (72 h), in the assay with A431 cells (72 h) and in the assay on MDA MB 468 cells (72 h) were 1040 nM, 388 nM and 420 nM, respectively. Moreover, in assay [2], the “KD BSA / binding to BSA, no value” was “did not show binding”.
